Data reported in patent EP0505468B1, “IMIDAZOLE DERIVATIVES AND THEIR USE AS ACYL COENZYME-A INHIBITORS” (RHONE-POULENC SANTE, priority 1989, dated 1991).

What was measured:
plasma cholesterol level = assay: In vivo inhibition of the increase in plasma cholesterol level in cholesterol/cholic acid-fed rats; conditions: increase in plasma cholesterol level measured after 3 days, relative to control animals on cholesterol supplemented diet; for inhibition in vivo at 0.03 % strength / inhibition in vivo at 0.01 % strength: Rattus norvegicus, feed or water, 72 h, read-out: In-vivo % Reduction; for inhibition in vivo at 0.03 % strength / In-vivo % Reduction: dose 0.03 %w/w in diet; for inhibition in vivo at 0.01 % strength: dose 0.01 %w/w in diet
[1] = test system: acyl coenzyme-A:cholesterol-O-acyl transferase (ACAT;EC 2.3.1.26); assay: In vitro ACAT inhibition in rat liver microsomes incubated with radiolabelled oleoyl-CoA; assay type: biochemical
Experimental: In assays performed in vitro, microsomes (prepared from the livers of rats fed a diet supplemented with 0.5%w/w cholesterol and 0.25%w/w cholic acid for 7 days) were incubated with radiolabelled oleoyl-CoA in the presence of compounds according to the invention at a concentration (in »g/m1) as shown in Table 1.

[2] = concentration 0.5 »g/m1, microsomes from livers of rats fed 0.5%w/w cholesterol and 0.25%w/w cholic acid for 7 days
[3] = concentration 1.0 »g/m1, microsomes from livers of rats fed 0.5%w/w cholesterol and 0.25%w/w cholic acid for 7 days

SMILES	In-vitro % Inhibition [1, 2]	also measured
c1ccc(-c2nc(SCCCSc3ncccn3)[nH]c2-c2ccccc2)cc1 [A, 2-[3-(Pyrimidin-2-ylthio)propylthio]-4,5-diphenylimidazole]	88%	inhibition in vivo at 0.03 % strength (plasma cholesterol level): 7%
Cn1ccnc1SCCCSc1nc(-c2ccccc2)c(-c2ccccc2)[nH]1 [C, 2-[3-(1-Methylimidazol-2-ylthio)propylthio]-4,5-diphenylimidazole]	93%	In-vivo % Reduction (plasma cholesterol level): 66%
c1ccc(-c2nc(SCCCSc3ccncc3)[nH]c2-c2ccccc2)cc1 [Compound B, 2-[3-(Pyrid-4-ylthio)propylthio]-4,5-diphenylimidazole]	90%	inhibition in vivo at 0.03 % strength (plasma cholesterol level): 91%
Cl.Cl.Cn1ccnc1SCCCSc1nc(-c2ccccc2)c(-c2ccccc2)[nH]1 [Compound D, 2-[3-(1-Methylimidazol-2-ylthio)propylthio]-4,5-diphenylimidazole dihydrochloride]	–	In-vivo % Reduction (plasma cholesterol level): 88%
Cc1cc(C)nc(SCCCSc2nc(-c3ccccc3)c(-c3ccccc3)[nH]2)n1 [Compound G, 2-[3-(4,6-Dimethylpyrimidin-2-ylthio)propylthio]-4,5-diphenylimidazole]	80%	–
Cn1ccnc1S(=O)(=O)CCCSc1nc(-c2ccccc2)c(-c2ccccc2)[nH]1 [Compound H, 2-[3-(1-Methylimidazol-2-ylsulphonyl)propylthio]-4,5-diphenylimidazole]	90%	inhibition in vivo at 0.03 % strength (plasma cholesterol level): 108%
Cn1cnnc1SCCCSc1nc(-c2ccccc2)c(-c2ccccc2)[nH]1 [Compound I, 2-[3-(4-Methyl-1,2,4-triazol-3-ylthio)propylthio]-4,5-diphenylimidazole]	84%	inhibition in vivo at 0.01 % strength (plasma cholesterol level): 5%
Cl.Cl.c1ccc(-c2nc(SCCCSc3nc(-c4ccccn4)c(-c4ccccn4)[nH]3)[nH]c2-c2ccccc2)cc1 [Compound K, 1-(4,5-Diphenylimidazol-2-ylthio)-3-[(4,5-dipyrid-2-yl)imidazol-2-ylthio]propane dihydrochloride]	77%	inhibition in vivo at 0.01 % strength (plasma cholesterol level): 4%
Cn1nnnc1S(=O)(=O)CCCSc1nc(-c2ccccc2)c(-c2ccccc2)[nH]1 [Compound L, 2-[3-(1-Methyltetrazol-5-ylsulphonyl)propylthio]-4,5-diphenylimidazole]	19%	–
Cn1ccnc1S(=O)(=O)CCCCS(=O)(=O)c1nc(-c2ccccc2)c(-c2ccccc2)[nH]1 [Compound O, 2-[4-(1-Methylimidazol-2-ylsulphonyl)butylsulphonyl]-4,5-diphenylimidazole]	23%	–
Cn1ccnc1SCCCCCCSc1nc(-c2ccccc2)c(-c2ccccc2)[nH]1 [Compound R, 2-[6-(1-Methylimidazol-2-ylthio)hexylthio]-4,5-diphenylimidazole]	95%	–
c1ccc(-c2nc(SCCCCCCCCCSc3nc(-c4ccccc4)c(-c4ccccc4)[nH]3)[nH]c2-c2ccccc2)cc1 [Compound S, 1,9-Bis(4,5-diphenylimidazol-2-ylthio)nonane]	77%	–
Cn1ccnc1SCCCCCCCCCSc1nc(-c2ccccc2)c(-c2ccccc2)[nH]1 [Compound T, 2-[9-(1-Methylimidazol-2-ylthio)nonylthio]-4,5-diphenylimidazole]	91%	–
c1ccc(-c2nc(SCCSc3nc(-c4ccccc4)c(-c4ccccc4)[nH]3)[nH]c2-c2ccccc2)cc1 [E, 1,2-Bis(4,5-diphenylimidazol-2-ylthio)ethane]	–	In-vitro % Inhibition [1, 3]: 88%
c1ccc(-c2nc(SCCCSc3nc(-c4ccccc4)c(-c4ccccc4)[nH]3)[nH]c2-c2ccccc2)cc1 [F, 1,3-Bis(4,5-diphenylimidazol-2-ylthio)propane]	–	inhibition in vivo at 0.03 % strength (plasma cholesterol level): 72%; In-vitro % Inhibition [1, 3]: 96%
Cn1nnnc1SCCCSc1nc(-c2ccccc2)c(-c2ccccc2)[nH]1 [J, 2-[3-(1-Methyltetrazol-5-ylthio)propylthio]-4,5-diphenylimidazole]	84%	inhibition in vivo at 0.01 % strength (plasma cholesterol level): 17%
c1ccc(-c2nc(SCCCSc3ncc[nH]3)[nH]c2-c2ccccc2)cc1 [M, 2-[3-(Imidazol-2-ylthio)propylthio]-4,5-diphenylimidazole]	95%	inhibition in vivo at 0.01 % strength (plasma cholesterol level): 107%
Cn1ccnc1SCCCCSc1nc(-c2ccccc2)c(-c2ccccc2)[nH]1 [N, 2-[4-(1-Methylimidazol-2-ylthio)butylthio]-4,5-diphenylimidazole]	94%	inhibition in vivo at 0.03 % strength (plasma cholesterol level): 98%
c1ccc(-c2nc(SCCCCSc3nc(-c4ccccc4)c(-c4ccccc4)[nH]3)[nH]c2-c2ccccc2)cc1 [P, 1,4-Bis(4,5-diphenylimidazol-2-ylthio)butane]	97%	–
C(=C\CSc1nc(-c2ccccc2)c(-c2ccccc2)[nH]1)/CSc1nc(-c2ccccc2)c(-c2ccccc2)[nH]1 [Q, E-1,4-Bis(4,5-diphenylimidazol-2-ylthio)but-2-ene]	98%	inhibition in vivo at 0.01 % strength (plasma cholesterol level): 74%
